In patent US10214519B2, “Phosphatidylinositol 3-kinase inhibitors” (Gilead Sciences, Inc., priority 2016, dated 2019) one finds IC50 data, which are given here for 24 compounds.

The target in this assay is PI3Kβ (Homo sapiens (Human), UniProt P42338). Put plainly: PI3K isoform TR-FRET enzymatic assay (PI3Kβ). It is filed as biochemical. As to conditions: 2× Km ATP, 30 minutes at 25° C. The method, boiled down:
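Heterodimeric recombinant PI3Kβ was incubated with compound 30 minutes at 25° C. Product was detected by TR-FRET competition with 10 nM labeled PIP3 for 35 nM Eu-GRP-1 PH domain after EDTA stop. Data were normalized to 1 μM wortmannin and DMSO, and IC50 was taken from a four-parameter fit.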

PI3Kβ, sequence (P42338 whole entry, the tested form may be a part, canonical isoform): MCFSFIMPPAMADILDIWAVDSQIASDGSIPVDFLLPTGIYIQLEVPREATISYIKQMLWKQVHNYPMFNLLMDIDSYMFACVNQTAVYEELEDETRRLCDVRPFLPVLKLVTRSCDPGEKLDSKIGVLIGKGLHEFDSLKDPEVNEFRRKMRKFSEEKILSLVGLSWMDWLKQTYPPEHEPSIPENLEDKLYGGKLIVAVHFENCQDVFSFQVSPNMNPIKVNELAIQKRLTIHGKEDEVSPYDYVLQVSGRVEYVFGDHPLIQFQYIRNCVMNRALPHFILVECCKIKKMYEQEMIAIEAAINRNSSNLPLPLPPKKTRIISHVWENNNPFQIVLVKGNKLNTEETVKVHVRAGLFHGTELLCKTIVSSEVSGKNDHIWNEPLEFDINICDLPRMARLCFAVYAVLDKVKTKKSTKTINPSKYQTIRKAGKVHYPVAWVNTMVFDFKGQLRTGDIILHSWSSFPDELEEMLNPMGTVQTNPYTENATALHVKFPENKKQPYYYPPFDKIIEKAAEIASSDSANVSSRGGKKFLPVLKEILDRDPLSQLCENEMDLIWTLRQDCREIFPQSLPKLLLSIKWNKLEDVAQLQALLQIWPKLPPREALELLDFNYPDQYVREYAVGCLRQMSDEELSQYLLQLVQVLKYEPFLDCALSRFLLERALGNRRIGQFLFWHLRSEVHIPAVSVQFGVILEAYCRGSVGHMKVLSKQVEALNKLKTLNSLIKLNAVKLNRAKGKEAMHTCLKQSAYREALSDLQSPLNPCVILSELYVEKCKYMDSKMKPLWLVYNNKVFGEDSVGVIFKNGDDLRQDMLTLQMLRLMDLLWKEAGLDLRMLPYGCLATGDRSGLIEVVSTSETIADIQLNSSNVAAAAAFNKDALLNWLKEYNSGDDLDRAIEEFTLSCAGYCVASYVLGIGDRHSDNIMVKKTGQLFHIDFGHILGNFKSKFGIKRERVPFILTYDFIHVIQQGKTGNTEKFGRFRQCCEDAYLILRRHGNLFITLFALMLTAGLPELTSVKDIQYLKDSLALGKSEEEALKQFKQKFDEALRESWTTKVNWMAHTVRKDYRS
PI3Kβ, sequence (P27986 whole entry partner, the tested form may be a part, canonical isoform): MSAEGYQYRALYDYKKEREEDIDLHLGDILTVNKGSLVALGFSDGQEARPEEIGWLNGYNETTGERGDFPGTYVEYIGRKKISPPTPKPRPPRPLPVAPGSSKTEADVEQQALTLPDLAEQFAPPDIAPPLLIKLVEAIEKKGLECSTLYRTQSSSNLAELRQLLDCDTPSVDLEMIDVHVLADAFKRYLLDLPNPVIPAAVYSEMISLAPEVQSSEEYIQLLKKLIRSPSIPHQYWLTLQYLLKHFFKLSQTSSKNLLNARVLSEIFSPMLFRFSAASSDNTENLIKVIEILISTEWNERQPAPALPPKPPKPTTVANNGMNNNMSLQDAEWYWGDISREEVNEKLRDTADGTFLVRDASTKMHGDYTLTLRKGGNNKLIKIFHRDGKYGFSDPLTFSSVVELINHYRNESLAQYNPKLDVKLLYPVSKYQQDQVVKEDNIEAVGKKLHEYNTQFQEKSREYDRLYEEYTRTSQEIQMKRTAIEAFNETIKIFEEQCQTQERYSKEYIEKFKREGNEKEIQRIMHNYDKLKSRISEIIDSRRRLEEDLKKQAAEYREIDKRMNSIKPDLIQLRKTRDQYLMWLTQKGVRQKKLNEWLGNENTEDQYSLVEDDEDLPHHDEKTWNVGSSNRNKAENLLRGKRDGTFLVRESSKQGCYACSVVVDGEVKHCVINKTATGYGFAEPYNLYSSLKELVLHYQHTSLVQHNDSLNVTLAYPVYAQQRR

Turning to `CCCc1nc2c(-c3nnc[nH]3)cc(N3CCOCC3)cc2n1-c1ccnc2c(F)c(F)ccc12` [Example 49, 4-(1-(7,8-difluoroquinolin-4-yl)-2-propyl-4-(4H-1,2,4-triazol-3-yl)-1H-benzo[d]imidazol-6-yl)morpholine], the IC50 (in general, the midpoint of a concentration-inhibition curve) stood at 18 nM. The same measure for `Cc1nc2c(-c3cccc(C(N)=O)c3)cc(N3CCOCC3)cc2n1-c1ccnc2c(Cl)cccc12` [Example 321, 3-[1-(8-chloroquinolin-4-yl)-2-methyl-6-morpholin-4-ylbenzimidazol-4-yl]benzamide]: 4400 nM; for `Cc1nc2c(-c3nnc[nH]3)cc(N3CCOC[C@H]3C)cc2n1-c1ccnc2c(Cl)cccc12` [Example 100, (3R)-4-[3-(8-chloroquinolin-4-yl)-2-methyl-7-(4H-1,2,4-triazol-3-yl)benzimidazol-5-yl]-3-methylmorpholine]: 43 nM; for `Cc1nc2c(Cl)cccc2c(-n2c(C)nc3c(-c4nnc[nH]4)cc(N4CCOCC4)cc32)c1C` [Example 70, 4-[3-(8-chloro-2,3-dimethylquinolin-4-yl)-2-methyl-7-(4H-1,2,4-triazol-3-yl)benzimidazol-5-yl]morpholine]: 36 nM.

`Cc1nc2c(-c3nnc(Cl)[nH]3)cc(N3CCOCC3)cc2n1-c1ccnc2c(Cl)cccc12` (atropisomer, axis not shown) [Compound 358, 4-[3-(8-chloroquinolin-4-yl)-7-(5-chloro-4H-1,2,4-triazol-3-yl)-2-methylbenzimidazol-5-yl]morpholine] showed an IC50 of 10 nM. For `Cc1nc2c(-c3nnc[nH]3)cc(N3CCOCC3)cc2n1-c1ccnc2cc(F)ccc12` [Example 90, 4-[3-(7-fluoroquinolin-4-yl)-2-methyl-7-(4H-1,2,4-triazol-3-yl)benzimidazol-5-yl]morpholine], half-maximal inhibition (IC50) required 11 nM.

`Cc1nc2c(-c3nnc(Cl)[nH]3)cc(N3CCOCC3)cc2n1-c1ccnc2c(Cl)ccc(F)c12` [Example 170, 4-(4-(5-chloro-4H-1,2,4-triazol-3-yl)-1-(8-chloro-5-fluoroquinolin-4-yl)-2-methyl-1H-benzo[d]imidazol-6-yl)morpholine] showed an IC50 of 7 nM. Compared with the last compound, the IC50 is about 1.6-fold lower. With `Cc1nc2c(-c3ccoc3)cc(N3CCOCC3)cc2n1-c1ccnc2c(Cl)cccc12` [Example 275, 4-[3-(8-chloroquinolin-4-yl)-7-(furan-3-yl)-2-methylbenzimidazol-5-yl]morpholine], half-maximal inhibition (IC50) required 88 nM.

Compound `Cc1nnc(-c2cc(N3CCOCC3)cc3c2nc(C)n3-c2ccnc3c(Cl)ccc(Cl)c23)[nH]1` [Example 151, 4-(1-(5,8-dichloroquinolin-4-yl)-2-methyl-4-(5-methyl-4H-1,2,4-triazol-3-yl)-1H-benzo[d]imidazol-6-yl)morpholine] yielded an IC50 of 44 nM. Then `Cc1csc(-c2cc(N3CCOCC3)cc3c2nc(C)n3-c2ccnc3c(F)ccc(F)c23)n1` [Example 233, 4-[3-(5,8-difluoroquinolin-4-yl)-2-methyl-7-(4-methyl-1,3-thiazol-2-yl)benzimidazol-5-yl]morpholine], with 8 nM; and `Cc1nc2c(-c3nnc[nH]3)cc(N3CCOCC3)cc2n1-c1c(Cl)cnc2c(Cl)cccc12` [Example 97, 4-[3-(3,8-dichloroquinolin-4-yl)-2-methyl-7-(4H-1,2,4-triazol-3-yl)benzimidazol-5-yl]morpholine], with 12 nM. In the case of `CC(C)Cc1nc2c(-c3cnc(Cl)[nH]3)cc(N3CCOCC3)cc2n1-c1ccnc2c(F)ccc(F)c12` [Example 300, 4-[7-(2-chloro-1H-imidazol-5-yl)-3-(5,8-difluoroquinolin-4-yl)-2-(2-methylpropyl)benzimidazol-5-yl]morpholine], 14 nM corresponded to half-maximal inhibition (IC50). As for `CCCc1nc2c(-c3cnc(C)[nH]3)cc(N3CCOCC3)cc2n1-c1ccnc2c(Cl)cccc12` [Example 212, 4-[3-(8-chloroquinolin-4-yl)-7-(2-methyl-1H-imidazol-5-yl)-2-propylbenzimidazol-5-yl]morpholine], the IC50 was 34 nM.

With `Cc1cc(-n2c(C)nc3c(-c4nnc[nH]4)cc(N4CCOCC4)cc32)c2cccc(Cl)c2n1` [Example 64, 4-[3-(8-chloro-2-methylquinolin-4-yl)-2-methyl-7-(4H-1,2,4-triazol-3-yl)benzimidazol-5-yl]morpholine], inhibition was half-maximal at 21 nM (IC50). This IC50 is about 1.6-fold lower than that of the compound before.

Take `c1ccc2c(-n3cnc4c(-c5nnc[nH]5)cc(N5CCOCC5)cc43)cc(-c3cc[nH]n3)nc2c1` [Example 383, 4-(1-(2-(1H-pyrazol-3-yl)quinolin-4-yl)-4-(4H-1,2,4-triazol-3-yl)-1H-benzo[d]imidazol-6-yl)morpholine]: the midpoint of inhibition, the IC50, lay at 11 nM. Regarding `Cc1nc2c(-c3nnc[nH]3)cc(N3CCOCC3)cc2n1-c1ccnc2c(C#N)cccc12` [Example 89, 4-[2-methyl-6-morpholin-4-yl-4-(4H-1,2,4-triazol-3-yl)benzimidazol-1-yl]quinoline-8-carbonitrile], the IC50 came to 12 nM. Compound `Fc1ccc(F)c2c(-n3c(CC4CC4)nc4c(-c5ncco5)cc(N5CCOCC5)cc43)ccnc12` [Example 221, 4-[2-(cyclopropylmethyl)-3-(5,8-difluoroquinolin-4-yl)-7-(1,3-oxazol-2-yl)benzimidazol-5-yl]morpholine] showed an IC50 of 11 nM.

In the case of `Cc1nc2c(-c3cn(C)cn3)cc(N3CCOCC3)cc2n1-c1ccnc2c(Cl)cccc12` [Example 203, 4-[3-(8-chloroquinolin-4-yl)-2-methyl-7-(1-methylimidazol-4-yl)benzimidazol-5-yl]morpholine], the IC50 is 120 nM. On to `Cc1nc2c(-c3nnc[nH]3)cc(N3CCOCC3)cc2n1-c1ccnc2cc(F)cc(F)c12` [Example 131, 4-[3-(5,7-difluoroquinolin-4-yl)-2-methyl-7-(4H-1,2,4-triazol-3-yl)benzimidazol-5-yl]morpholine], for which the IC50 worked out at 46 nM. Then `Clc1cccc2c(-n3c(-c4cncs4)nc4c(-c5nnc[nH]5)cc(N5CCOCC5)cc43)ccnc12` [Example 119, 4-[3-(8-chloroquinolin-4-yl)-2-(1,3-thiazol-5-yl)-7-(4H-1,2,4-triazol-3-yl)benzimidazol-5-yl]morpholine], with 24 nM; and `Cc1nc2c(-c3nnc(C4CC4)[nH]3)cc(N3CCOCC3)cc2n1-c1ccnc2c(Cl)cccc12` [Example 135, 4-[3-(8-chloroquinolin-4-yl)-7-(5-cyclopropyl-4H-1,2,4-triazol-3-yl)-2-methylbenzimidazol-5-yl]morpholine], with 43 nM; and `Cc1cc(-n2c(C)nc3c(-c4nc(C)n[nH]4)cc(N4CCOCC4)cc32)c2ccc(F)cc2n1` [Example 79, 4-[3-(7-fluoro-2-methylquinolin-4-yl)-2-methyl-7-(3-methyl-1H-1,2,4-triazol-5-yl)benzimidazol-5-yl]morpholine], with 110 nM. Compound `Cc1nnc(-c2cc(N3CCOCC3)cc3c2nc(C)n3-c2ccnc3cccc(C)c23)[nH]1` [Example 93, 4-[2-methyl-3-(5-methylquinolin-4-yl)-7-(5-methyl-4H-1,2,4-triazol-3-yl)benzimidazol-5-yl]morpholine] had an IC50 of 290 nM. In turn, `Cc1nc2c(-c3nnc[nH]3)cc(N3CCOCC3)cc2n1-c1cc(C(F)(F)F)nc2c(Cl)cccc12` [Example 58, 4-[3-[8-chloro-2-(trifluoromethyl)quinolin-4-yl]-2-methyl-7-(4H-1,2,4-triazol-3-yl)benzimidazol-5-yl]morpholine] came in with an IC50 of 62 nM.
